Test results as given in PubChem BioAssay (NCI).
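Interpolation was linear, between the two tested concentrations surrounding the appropriate level; five concentrations were tested over 48 hours in 96-well plates. GI50: concentration for 50% inhibition of growth. At the TGI there is no net growth.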

Key:
Experiment in all cases: NCI tumour cell line growth inhibition, 48 h
HCT-116 colon = tested on: HCT-116 colon
HCT-15 colon = tested on: HCT-15 colon
K-562 leukemia = tested on: K-562 leukemia
LOX IMVI melanoma = tested on: LOX IMVI melanoma
NCI-H23 lung = tested on: NCI-H23 lung
SF-295 CNS = tested on: SF-295 CNS
SK-MEL-5 melanoma = tested on: SK-MEL-5 melanoma
T-47D breast = tested on: T-47D breast
TK-10 renal = tested on: TK-10 renal
UACC-257 melanoma = tested on: UACC-257 melanoma

SMILES | GI50 (HCT-116 colon) | TGI (HCT-116 colon) | GI50 (HCT-15 colon) | TGI (HCT-15 colon) | GI50 (K-562 leukemia) | TGI (K-562 leukemia) | GI50 (LOX IMVI melanoma) | TGI (LOX IMVI melanoma) | GI50 (NCI-H23 lung) | TGI (NCI-H23 lung) | GI50 (SF-295 CNS) | TGI (SF-295 CNS) | GI50 (SK-MEL-5 melanoma) | TGI (SK-MEL-5 melanoma) | GI50 (T-47D breast) | TGI (T-47D breast) | GI50 (TK-10 renal) | TGI (TK-10 renal) | GI50 (UACC-257 melanoma) | TGI (UACC-257 melanoma)
Nc1ccccc1C#C/C=C\C#Cc1ccccc1OC(F)(F)F | 4.45 µM | 16.7 µM | 4 µM | 20 µM | 2.31 µM | > 100 µM | 7.85 µM | 27 µM | 6.44 µM | 80.2 µM | 3.03 µM | 11.4 µM | 4 µM | 15 µM | 4.19 µM | 74.1 µM | 10.6 µM | 43.7 µM | 12 µM | 50.7 µM
O=[N+]([O-])c1cccc(-c2csc(NNC3=NC/C(=C/c4ccc5c(c4)OCO5)S3)n2)c1 | – | > 100 µM | – | > 100 µM | – | > 100 µM | – | > 100 µM | – | 48.9 µM | – | > 100 µM | – | 38.6 µM | – | > 100 µM | – | 81.6 µM | – | > 100 µM
Cc1ccc2c(C)c3c(ccc4ccccc43)c[n+]2c1 | 17.3 µM | 78.7 µM | 77.7 µM | > 100 µM | 9.3 µM | 47.3 µM | 17.3 µM | 53.6 µM | 3.96 µM | 38.6 µM | 3.04 µM | 31.7 µM | 2.25 µM | 10.4 µM | 1.73 µM | 7.18 µM | 68.3 µM | > 100 µM | 10.4 µM | 77.1 µM
Cn1cc(C2=C(c3c4n(c5ccccc35)CCCCC4)C(=O)NC2=O)c2ccccc21 | 4.21 µM | > 25 µM | 1.69 µM | > 25 µM | 1.38 µM | > 25 µM | 9.4 µM | > 25 µM | 10.6 µM | > 25 µM | 1.31 µM | > 14.7 µM | 2.66 µM | 13.1 µM | 8.64 µM | > 25 µM | 6.38 µM | > 25 µM | > 25 µM | > 25 µM
NS(=O)(=O)c1ccc2c(c1)OCCOCCOCCOCCO2 | – | > 100 µM | – | > 100 µM | – | > 100 µM | – | > 100 µM | – | > 100 µM | – | > 100 µM | – | > 100 µM | – | > 100 µM | – | > 100 µM | – | > 100 µM
OC1CSSC1Cn1cnc2c(Nc3ccc(OCc4cccc(F)c4)c(Cl)c3)ncnc21 (stereo unspecified) | 0.687 µM | 3.84 µM | 0.767 µM | 2.16 µM | 0.604 µM | 1.5 µM | 0.121 µM | 0.499 µM | 0.689 µM | 1.73 µM | 3.79 µM | 10.4 µM | 0.733 µM | 2.88 µM | 1.3 µM | 8.4 µM | 1.15 µM | 5.01 µM | 4.09 µM | 15.4 µM
CCOC(=O)Cn1c(C(F)(F)F)nc2nc(Cl)c(Cl)nc21 | – | > 100 µM | – | > 100 µM | – | > 100 µM | – | > 100 µM | – | > 87.4 µM | – | > 100 µM | – | 76.9 µM | – | > 100 µM | – | > 100 µM | – | 53.4 µM
CCOC(=O)/C=C/CC(C)(C)CCOC(C)=O | – | > 10 µM | – | > 10 µM | – | > 10 µM | – | > 10 µM | – | > 10 µM | – | > 10 µM | – | > 10 µM | – | > 10 µM | – | > 10 µM | – | > 10 µM
COc1cnc2c(c1)C(=O)c1c-2n(CCCN2CCOCC2)c(=O)c2cc(F)ccc12 | – | – | – | – | 0.32 µM | > 100 µM | 0.161 µM | 0.387 µM | 0.284 µM | 1.84 µM | 0.141 µM | 0.864 µM | 0.169 µM | 0.446 µM | 0.118 µM | 0.69 µM | 0.489 µM | 16.3 µM | – | –
O=C(Nc1ccc(F)cc1)Nc1ccc(Cl)c([N+](=O)[O-])c1 | 3.07 µM | 11.8 µM | 2.92 µM | 12.1 µM | 3.2 µM | > 100 µM | 3.51 µM | 12.2 µM | 2.62 µM | 10.7 µM | 2.27 µM | 7.93 µM | 1.76 µM | 3.22 µM | 2.18 µM | 9.67 µM | 4.1 µM | 20.1 µM | 2.73 µM | 8.85 µM
O=C(Nc1ccc(-n2ccc3c(NC(=O)c4ccccc4)nccc32)cc1)c1ccc(Cl)c(C(F)(F)F)c1 | 0.0824 µM | 0.989 µM | 0.0275 µM | 2.83 µM | 0.213 µM | > 17.2 µM | 0.112 µM | 3.29 µM | 7.16 µM | > 32.9 µM | 0.293 µM | 10 µM | 0.132 µM | 8.67 µM | 6.2 µM | 20.4 µM | 5.38 µM | 13.5 µM | 6.73 µM | 27.2 µM
COC(=O)CC[N+]1=CCC(c2ccccc2)(c2ccccc2)O1 | – | > 100 µM | – | > 100 µM | – | > 100 µM | – | – | – | > 100 µM | – | > 100 µM | – | > 100 µM | – | > 100 µM | – | > 100 µM | – | > 100 µM
Cc1ccc(NC(=O)Nc2ccc(-c3cccnc3)cc2N2CCC(CO)CC2)cc1 | 1.78 µM | 11.4 µM | 2.77 µM | > 100 µM | 2.19 µM | > 100 µM | 3.6 µM | > 100 µM | – | – | 2.53 µM | > 100 µM | 1.68 µM | 3.27 µM | 3.9 µM | > 100 µM | 2.04 µM | 5.54 µM | 2.14 µM | 9.61 µM
Cc1cc(-c2nc(C(=O)Nc3cc4oc(N5CCOCC5)nc4nc3N3CC[C@@H](O)C3)co2)ccn1 | 30.1 µM | > 100 µM | 25.7 µM | > 100 µM | 41.2 µM | > 100 µM | 39.9 µM | > 100 µM | 28.1 µM | > 100 µM | 87.5 µM | > 100 µM | 45.7 µM | > 100 µM | 22.1 µM | > 100 µM | 26.7 µM | > 100 µM | 88.8 µM | > 100 µM
C=CC(=O)Nc1cc(Nc2ncc(C(=O)OC(C)C)c(-c3cn(C)c4ccccc34)n2)c(OC)cc1N(C)CCN(C)C | 3.46 µM | 20 µM | 1.79 µM | 5.05 µM | 2.22 µM | > 23.4 µM | 1.76 µM | 3.53 µM | 9.02 µM | 25.3 µM | 5.11 µM | 10.6 µM | 1.78 µM | 3.21 µM | 0.396 µM | 14 µM | < 0.01 µM | 5.19 µM | 1.8 µM | 3.71 µM
